Measurements published in patent US11878975B2, “Substituted indole compounds useful as TLR inhibitors” (BRISTOL-MYERS SQUIBB COMPANY, priority 2017, dated 2024).

Legend:
Assay type in all cases: cell-based
[1] = molecular target: T1, human TLR8 (Homo sapiens, UniProt Q9NR97); assay: TLR8 inhibition reporter assay (HEK-Blue cells, SEAP reporter, R848 stimulation); conditions: HEK-Blue cells overexpressing human TLR8, SEAP reporter, R848 15.9 μM
T1 construct: host or cells: HEK-Blue cells
T1 sequence (Q9NR97 27-1041): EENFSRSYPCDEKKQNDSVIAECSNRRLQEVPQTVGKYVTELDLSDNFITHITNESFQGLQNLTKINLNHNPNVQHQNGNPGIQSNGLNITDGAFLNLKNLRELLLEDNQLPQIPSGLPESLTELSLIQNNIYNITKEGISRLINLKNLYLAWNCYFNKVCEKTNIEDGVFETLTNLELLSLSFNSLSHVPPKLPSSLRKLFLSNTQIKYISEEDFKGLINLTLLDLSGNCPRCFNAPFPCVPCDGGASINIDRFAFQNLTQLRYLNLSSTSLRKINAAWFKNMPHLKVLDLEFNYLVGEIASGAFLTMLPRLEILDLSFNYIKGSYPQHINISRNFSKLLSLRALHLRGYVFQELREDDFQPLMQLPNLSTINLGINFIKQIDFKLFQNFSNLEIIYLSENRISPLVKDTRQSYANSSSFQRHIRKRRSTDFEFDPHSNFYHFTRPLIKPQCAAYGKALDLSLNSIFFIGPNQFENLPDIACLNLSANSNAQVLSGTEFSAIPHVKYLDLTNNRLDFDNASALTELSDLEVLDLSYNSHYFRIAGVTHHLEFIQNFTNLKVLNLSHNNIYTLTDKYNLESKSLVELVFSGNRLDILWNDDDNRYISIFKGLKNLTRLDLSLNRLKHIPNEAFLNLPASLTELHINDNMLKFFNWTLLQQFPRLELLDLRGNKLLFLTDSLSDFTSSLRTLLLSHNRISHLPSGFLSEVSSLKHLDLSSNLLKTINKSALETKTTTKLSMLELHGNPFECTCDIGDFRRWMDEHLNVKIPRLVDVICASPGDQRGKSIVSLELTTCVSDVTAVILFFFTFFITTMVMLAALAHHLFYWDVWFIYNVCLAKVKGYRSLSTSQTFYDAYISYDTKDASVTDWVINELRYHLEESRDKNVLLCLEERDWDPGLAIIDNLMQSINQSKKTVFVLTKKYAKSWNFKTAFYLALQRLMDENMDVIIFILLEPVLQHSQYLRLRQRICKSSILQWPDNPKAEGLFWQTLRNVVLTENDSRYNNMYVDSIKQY
Outline: (§1)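 Dose range 0.05 nM–50 μM; 30 min preincubation, RT. Agonists: TLR7 gardiquimod 7.5 μM, TLR8 R848 15.9 μM, TLR9 ODN2006 5 nM. 22 h, 37 °C, 5% CO2. SEAP (IFN-β minimal promoter with NF-κB/AP-1 sites) via colorimetric detection medium; % inhibition vs agonist+DMSO and reference-inhibitor wells.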

[2] = molecular target: T2, human TLR9 (Homo sapiens, UniProt Q9NR96); assay: TLR9 inhibition reporter assay (HEK-Blue cells, SEAP reporter, ODN2006 stimulation); conditions: HEK-Blue cells overexpressing human TLR9, SEAP reporter, ODN2006 5 nM
T2 construct: host or cells: HEK-Blue cells
T2 sequence (Q9NR96 26-1032): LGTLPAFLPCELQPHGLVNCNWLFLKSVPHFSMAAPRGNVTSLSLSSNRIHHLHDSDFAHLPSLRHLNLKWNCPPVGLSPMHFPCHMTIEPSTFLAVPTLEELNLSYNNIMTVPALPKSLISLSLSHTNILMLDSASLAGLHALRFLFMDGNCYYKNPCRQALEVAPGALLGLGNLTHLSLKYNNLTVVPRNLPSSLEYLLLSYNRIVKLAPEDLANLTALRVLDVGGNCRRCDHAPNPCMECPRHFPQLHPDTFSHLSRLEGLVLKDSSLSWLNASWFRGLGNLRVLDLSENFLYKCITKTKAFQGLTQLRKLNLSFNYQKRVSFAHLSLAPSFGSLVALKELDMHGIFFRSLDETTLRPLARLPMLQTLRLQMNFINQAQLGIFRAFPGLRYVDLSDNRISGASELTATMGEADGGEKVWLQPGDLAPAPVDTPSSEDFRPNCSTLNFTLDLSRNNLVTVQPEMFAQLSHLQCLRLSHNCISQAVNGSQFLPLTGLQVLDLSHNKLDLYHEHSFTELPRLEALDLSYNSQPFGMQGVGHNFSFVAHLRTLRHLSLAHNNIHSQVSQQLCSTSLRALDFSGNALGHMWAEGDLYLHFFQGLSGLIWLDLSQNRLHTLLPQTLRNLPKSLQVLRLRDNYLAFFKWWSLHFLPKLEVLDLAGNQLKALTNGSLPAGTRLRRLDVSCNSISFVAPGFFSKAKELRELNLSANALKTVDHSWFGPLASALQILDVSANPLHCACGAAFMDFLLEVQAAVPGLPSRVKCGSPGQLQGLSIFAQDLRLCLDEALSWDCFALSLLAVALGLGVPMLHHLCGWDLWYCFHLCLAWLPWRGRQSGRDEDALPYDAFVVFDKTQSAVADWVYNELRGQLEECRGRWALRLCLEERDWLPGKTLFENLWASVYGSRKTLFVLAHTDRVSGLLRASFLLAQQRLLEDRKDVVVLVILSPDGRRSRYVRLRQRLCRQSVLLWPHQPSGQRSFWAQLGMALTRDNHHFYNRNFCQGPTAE
Outline: as §1

[3] = molecular target: T3, human TLR7 (Homo sapiens, UniProt Q9NYK1); assay: TLR7 inhibition reporter assay (HEK-Blue cells, SEAP reporter, gardiquimod stimulation); conditions: HEK-Blue cells overexpressing human TLR7, SEAP reporter, gardiquimod 7.5 μM
T3 construct: host or cells: HEK-Blue cells
T3 sequence (Q9NYK1 27-1049): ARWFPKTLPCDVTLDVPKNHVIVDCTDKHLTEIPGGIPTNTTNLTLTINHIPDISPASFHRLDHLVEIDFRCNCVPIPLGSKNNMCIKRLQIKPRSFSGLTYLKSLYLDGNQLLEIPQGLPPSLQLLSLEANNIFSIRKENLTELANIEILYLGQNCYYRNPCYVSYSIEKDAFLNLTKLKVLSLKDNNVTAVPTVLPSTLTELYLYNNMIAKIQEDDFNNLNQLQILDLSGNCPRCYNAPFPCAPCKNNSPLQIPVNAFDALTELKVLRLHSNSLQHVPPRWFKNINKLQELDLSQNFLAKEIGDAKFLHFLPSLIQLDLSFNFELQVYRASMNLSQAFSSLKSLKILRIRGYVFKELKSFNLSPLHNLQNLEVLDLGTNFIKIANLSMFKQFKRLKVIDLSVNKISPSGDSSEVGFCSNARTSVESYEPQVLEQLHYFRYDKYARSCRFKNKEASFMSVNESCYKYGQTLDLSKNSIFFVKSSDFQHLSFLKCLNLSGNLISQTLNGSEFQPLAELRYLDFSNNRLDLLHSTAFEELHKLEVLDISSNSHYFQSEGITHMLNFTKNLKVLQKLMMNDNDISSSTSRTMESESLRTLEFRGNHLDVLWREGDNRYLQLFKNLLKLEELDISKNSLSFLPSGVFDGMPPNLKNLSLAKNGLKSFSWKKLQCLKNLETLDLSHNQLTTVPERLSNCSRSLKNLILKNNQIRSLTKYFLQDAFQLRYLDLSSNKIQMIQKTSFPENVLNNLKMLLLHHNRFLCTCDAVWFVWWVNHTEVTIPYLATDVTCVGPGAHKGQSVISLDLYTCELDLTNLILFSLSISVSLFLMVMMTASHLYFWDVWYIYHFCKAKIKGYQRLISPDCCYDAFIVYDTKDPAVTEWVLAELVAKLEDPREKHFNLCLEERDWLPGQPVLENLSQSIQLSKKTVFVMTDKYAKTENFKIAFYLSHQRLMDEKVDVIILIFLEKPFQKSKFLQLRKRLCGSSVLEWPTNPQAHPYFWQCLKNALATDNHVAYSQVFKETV
Outline: as §1

Compound	IC50 [1] [nM]	IC50 [2] [nM]	IC50 [3] [nM]
Cc1cc(-c2[nH]c3ccc(C4CN5CCC4CC5)cc3c2C(C)C)cc(C)n1 (single isomer, unassigned) [Example 363, 3-(2-(2,6-dimethylpyridin-4-yl)-3-isopropyl-1H-indol-5-yl)quinuclidine]	5.3	438	2
CNC(=O)CN1CCOC(c2ccc3[nH]c(-c4cc(C)c5ncnn5c4)c(C(C)C)c3c2)C1 (stereo not drawn) [Example 317]	90	> 50000	12
Cc1cc(-c2[nH]c3ccc([C@H]4C[C@H]4C(=O)N4CC5CC4CN5)cc3c2C(C)C)ccn1 (stereo partly drawn) [Example 454]	5.5	363	96
Cc1cc(-c2[nH]c3ccc(C4CCC(NC(=O)CN(C)C)CC4)cc3c2C(C)C)cn2ncnc12 (stereo not drawn) [Example 121]	2.6	7150	0.41
Cc1c(-c2[nH]c3ccc(C4CC(N(C)C)C4)cc3c2C(C)C)cn2ncnc2c1C (stereo not drawn) [Example 574]	0.58	4250	1
COc1cc(-c2[nH]c3ccc(C4CCC(NC(=O)CN(C)C)CC4)cc3c2C(C)C)cn2ncnc12 (stereo not drawn) [Example 127]	3.2	3160	2
Cc1cc(-c2[nH]c3ccc(C4CN(CCS(C)(=O)=O)CCO4)cc3c2C(C)C)cn2ncnc12 (stereo not drawn) [Example 343, 2-(3-isopropyl-2-(8-methyl-[1,2,4]triazolo[1,5-a]pyridin-6-yl)-1H-indol-5-yl)-4-(2-(methylsulfonyl)ethyl)morpholine]	34	> 50000	10
CC(C)c1c(-c2ccnc3[nH]ncc23)[nH]c2ccc(CN3CCN(C)CC3)cc12 [Example 442]	4.6	7600	26
COc1cc(-c2[nH]c3ccc(C4CCC(NC(=O)CC(F)(F)F)CC4)cc3c2C(C)C)cn2ncnc12 (stereo not drawn) [Example 118, 3,3,3-trifluoro-N-(4-(3-isopropyl-2-(8-methoxy-[1,2,4]triazolo[1,5-a]pyridin-6-yl)-1H-indol-5-yl)cyclohexyl)propanamide]	22	15600	2
Cc1cc(-c2[nH]c3ccc(C4CCC(NC5COC5)CC4)cc3c2C(C)C)cc(C)n1 (stereo not drawn) [Example 61]	3.9	201	1
COc1cc(-c2[nH]c3ccc(C4CN(C5COC5)C(C)(C)CO4)cc3c2C(C)C)cn2ncnc12 (stereo not drawn) [Example 378]	176	> 50000	50
Cc1c(-c2[nH]c3ccc(C4CC5CN(C6CCOC6)CC5C4)cc3c2C(C)C)cn2cnnc2c1C (stereo not drawn) [Example 562]	28	3710	4

Further molecules by falling IC50 [1], results first:

IC50 [1] [nM]	IC50 [2] [nM]	IC50 [3] [nM]	Compound
553	1180	2390	CCc1c(-c2ccc(OC)c(OC)c2)[nH]c2ccc(CN3CC4CN(C(C)C)CC4C3)cc12 (stereo not drawn) [Example 392, 2-(3,4-dimethoxyphenyl)-3-ethyl-5-{[5-(propan-2-yl)-octahydropyrrolo[3,4-c]pyrrol-2-yl]methyl}-1H-indole]
85	12700	9	Cc1c(-c2[nH]c3ccc(C4CC5CN(C6COC6)CC5C4)cc3c2C(C)C)cn2cnnc2c1C (stereo not drawn) [Example 522]
35	15800	8	Cc1cc(-c2[nH]c3ccc(C4CCC(O)CC4)cc3c2C(C)C)cc(C)n1 (single isomer, unassigned) [Example 172, 4-(2-(2,6-dimethylpyridin-4-yl)-3-isopropyl-1H-indol-5-yl)cyclohexanol]
18	16900	4	CNC(=O)CNC1CCC(c2ccc3[nH]c(-c4cc(OC)c5ncnn5c4)c(C(C)C)c3c2)CC1 (stereo not drawn) [Example 166]
7.2	976	0.95	Cc1cc(-c2[nH]c3ccc(C4CCC(NC(=O)CN(C)C)CC4)cc3c2C(C)C)cc(C)n1 (stereo not drawn) [Example 119]
5.8	2230	9	COCCN1CCN(C2CCC(c3ccc4[nH]c(-c5cc(OC)c6ncnn6c5)c(C(C)C)c4c3)CC2)CC1 (single isomer, unassigned) [Example 39]
5.4	1970	36	Cc1cc(-c2[nH]c3ccc(C4CN(CC(C)(C)O)CCO4)cc3c2C(C)C)cc(C)n1 (stereo not drawn) [Example 357]
3.3	5570	2	COc1cc(-c2[nH]c3ccc(C4CN(C)CCO4)cc3c2C(C)C)cn2ncnc12 (stereo not drawn) [Example 299]
1	2610	0.2	COc1cc(-c2[nH]c3ccc(C4CCC(NC5(C)CC5)CC4)cc3c2C(C)C)cn2ncnc12 (stereo not drawn) [Example 42]
0.88	3140	0.14	Cc1cc(-c2[nH]c3ccc(C4CCC(NC5COC5)CC4)cc3c2C(C)C)cn2ncnc12 (stereo not drawn) [Example 59]
